According to US10233173B2, “Substituted 1,2,3-triazoles as NR2B-selective NMDA modulators” (JANSSEN PHARMACEUTICA NV, priority 2016, dated 2019):

Biological target: human GluN1/GluN2B NMDA receptors (Homo sapiens, UniProt Q05586+Q13224)
Experiment: Cell-based calcium flux (FLIPR) assay on cloned human NR1/NR2B ion channels expressed in mammalian cells
Conditions: standard assay; glutamate at ~EC80; FLIPR calcium flux
Procedure: Effects of Test Articles on Cloned Human NR1/NR2B Ion Channels Expressed in Mammalian Cells
NMDA receptors are ion channels that are highly permeable to Ca^2+ ions, rendering it possible to monitor NMDA receptor function using cell-based calcium flux assay. In this assay, co-agonists glutamate and glycine are added to cells heterologously expressing human GluN1/GluN2B NMDA receptors to initiate cellular Ca^2+ influx. The time course of the changes in intracellular calcium is measured using a fluorescent dye and a FLIPR (Fluorometric Imaging Plate Reader) device.
Twenty four hours before measurements, the expression of the NMDA receptors in the stable cell line is induced with Tet-On inducible system in the presence of a non-selective NMDA receptor blocker. On the day of the experiment, cell culture media is carefully washed and the cells are loaded with Calcium 5 Dye Kit (Molecular Devices) in dye loading buffer containing 149 mM NaCl, 4 mM KCl, 2 mM CaCl2, and 1.5 mM MgCl2, 10 mM HEPES and 5 mM D-glucose; pH 7.4. After 1 h incubation at the room temperature, the dye is washed away with the assay buffer (149 mM NaCl (standard assay) or 150 mM (HTS assay), 4 mM KCl (standard assay) or 3 mM (HTS assay), 2 mM CaCl2, 0.01 mM EDTA, 10 mM HEPES and 5 mM D-glucose; pH 7.4) In the FLIPR TETRA reader, various concentrations of the test compounds are added to the cells for 5 min while fluorescence is monitored to detect potential agonist activity. Next, co-agonists, glutamate and glycine are added for another 5 minutes. The concentration of glutamate corresponding to ˜EC80 (standard assay) or EC40 (HTS assay) is used to maximize the assay's signal window or the ability to detect NMDA receptor antagonists and negative allosteric modulators, respectively. A saturating concentration (10 μM) of glycine is also present in the assay. […] The fluorescent signal in the presence of test compounds is quantified and normalized to the signal defined by the appropriate control wells.

Chain of human GluN1/GluN2B NMDA receptors (Q13224 27-1484, other chains not shown): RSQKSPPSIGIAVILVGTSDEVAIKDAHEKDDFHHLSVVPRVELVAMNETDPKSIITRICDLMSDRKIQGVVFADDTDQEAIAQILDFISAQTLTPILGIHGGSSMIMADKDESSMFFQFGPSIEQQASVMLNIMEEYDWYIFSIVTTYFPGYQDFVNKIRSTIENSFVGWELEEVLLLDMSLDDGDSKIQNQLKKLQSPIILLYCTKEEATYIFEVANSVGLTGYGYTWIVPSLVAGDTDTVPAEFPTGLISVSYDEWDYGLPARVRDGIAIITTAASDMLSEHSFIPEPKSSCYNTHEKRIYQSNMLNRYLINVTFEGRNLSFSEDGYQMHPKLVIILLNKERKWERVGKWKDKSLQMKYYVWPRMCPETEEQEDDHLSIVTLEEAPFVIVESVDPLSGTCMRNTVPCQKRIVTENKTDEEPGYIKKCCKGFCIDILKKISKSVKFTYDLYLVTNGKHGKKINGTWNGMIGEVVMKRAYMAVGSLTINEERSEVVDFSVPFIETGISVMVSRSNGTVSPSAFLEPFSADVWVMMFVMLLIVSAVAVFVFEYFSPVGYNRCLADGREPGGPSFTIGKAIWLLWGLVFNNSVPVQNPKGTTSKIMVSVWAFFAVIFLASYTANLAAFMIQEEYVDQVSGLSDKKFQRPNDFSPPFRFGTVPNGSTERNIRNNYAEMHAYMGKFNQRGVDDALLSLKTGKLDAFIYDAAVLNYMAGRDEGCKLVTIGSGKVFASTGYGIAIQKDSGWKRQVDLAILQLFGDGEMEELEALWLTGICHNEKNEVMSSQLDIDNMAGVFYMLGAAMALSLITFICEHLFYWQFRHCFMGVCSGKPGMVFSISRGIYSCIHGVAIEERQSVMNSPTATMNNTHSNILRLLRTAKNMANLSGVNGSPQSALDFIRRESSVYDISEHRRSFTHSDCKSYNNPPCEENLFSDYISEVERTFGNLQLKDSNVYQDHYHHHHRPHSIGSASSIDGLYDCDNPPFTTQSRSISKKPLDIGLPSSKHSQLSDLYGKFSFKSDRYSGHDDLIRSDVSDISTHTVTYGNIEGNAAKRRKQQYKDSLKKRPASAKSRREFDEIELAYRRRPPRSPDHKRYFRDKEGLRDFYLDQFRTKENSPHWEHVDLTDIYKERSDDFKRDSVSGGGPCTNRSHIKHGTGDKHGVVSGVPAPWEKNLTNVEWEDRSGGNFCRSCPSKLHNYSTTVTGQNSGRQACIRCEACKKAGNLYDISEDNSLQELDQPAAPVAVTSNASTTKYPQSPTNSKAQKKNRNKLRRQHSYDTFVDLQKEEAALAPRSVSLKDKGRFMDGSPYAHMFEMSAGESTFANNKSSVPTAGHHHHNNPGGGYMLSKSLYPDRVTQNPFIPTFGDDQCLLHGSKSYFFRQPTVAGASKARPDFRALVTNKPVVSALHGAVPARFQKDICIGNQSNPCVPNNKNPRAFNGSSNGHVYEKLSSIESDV

Point of comparison: `Fc1ccc(-n2cc(COc3ncc(N4CC(F)C4)cn3)nn2)cc1OC(F)F` [Example 507, 2-[[1-[3-(Difluoromethoxy)-4-fluoro-phenyl]triazol-4-yl]methoxy]-5-(3-fluoroazetidin-1-yl)pyrimidine], IC50 0.008 µM. Against it:
- CC(=O)c1cnc(OCc2cn(-c3ccc(F)c(C(C)(F)F)c3)nn2)nc1 [Example 585, 1-[2-[[1-[3-(1,1-Difluoroethyl)-4-fluoro-phenyl]triazol-4-yl]methoxy]pyrimidin-5-yl]ethanone] — within 1.5-fold, 0.011 µM
- FCCOc1cnc(OCc2cn(-c3ccc(Cl)c(C(F)F)c3)nn2)nc1 [Example 636, 2-[[1-[4-Chloro-3-(difluoromethyl)phenyl]triazol-4-yl]methoxy]-5-(2-fluoroethoxy)pyrimidine] — within 1.5-fold, 0.01 µM
- Fc1ccc(-n2cc(COc3ncc(N4CCC(F)(F)C4)cn3)nn2)cc1C(F)F [Example 422, 2-((1-(3-(Difluoromethyl)-4-fluorophenyl)-1H-1,2,3-triazol-4-yl)methoxy)-5-(3,3-difluoropyrrolidin-1-yl)pyrimidine] — 8.5-fold higher, 0.068 µM
- CCNc1cnc(OCc2cn(-c3ccc(F)c(C(F)(F)F)c3)nn2)nc1C [Example 458, 2-((1-(3-(Trifluoromethyl)-4-fluorophenyl)-1H-1,2,3-triazol-4-yl)methoxy)-N-ethyl-4-methylpyrimidin-5-amine] — 55-fold higher, 0.439 µM
- CC(F)(F)c1cc(-n2cc(COc3nccc(CO)n3)nn2)ccc1Cl [Example 540, [2-[[1-[4-Chloro-3-(1,1-difluoroethyl)phenyl]triazol-4-yl]methoxy]pyrimidin-4-yl]methanol] — 2.4-fold higher, 0.019 µM
- CNC(=O)c1cnc(OCc2cn(-c3ccc(F)c(C(F)(F)F)c3)nn2)nc1 [Example 452, 2-[[1-[4-Fluoro-3-(trifluoromethyl)phenyl]triazol-4-yl]methoxy]-N-methyl-pyrimidine-5-carboxamide] — 27-fold higher, 0.218 µM
- Cc1ccc(-n2cc(COc3ncc(C)c(N)n3)nn2)cc1OC(F)F [Example 521, 2-[[1-[3-(Difluoromethoxy)-4-methyl-phenyl]triazol-4-yl]methoxy]-5-methyl-pyrimidin-4-amine] — 2.6-fold higher, 0.021 µM
- CN(C)C(=O)c1ccnc(OCc2cn(-c3ccc(F)c(C(F)F)c3)nn2)n1 [Example 410, 2-[[1-[3-(Difluoromethyl)-4-fluoro-phenyl]triazol-4-yl]methoxy]-N,N-dimethyl-pyrimidine-4-carboxamide] — higher, > 2.99 µM
- COc1nc(OCc2cn(-c3ccc(F)c(C(F)F)c3)nn2)ncc1C [Example 411, 2-[[1-[3-(Difluoromethyl)-4-fluoro-phenyl]triazol-4-yl]methoxy]-4-methoxy-5-methyl-pyrimidine] — 2.6-fold higher, 0.021 µM
- Cc1nc(OCc2cn(-c3ccc(Cl)c(C(C)(F)F)c3)nn2)ncc1F [Example 544, 2-[[1-[4-Chloro-3-(1,1-difluoroethyl)phenyl]triazol-4-yl]methoxy]-5-fluoro-4-methyl-pyrimidine] — 1.9-fold higher, 0.015 µM
- Fc1ccc(-n2cc(COc3ncc(C(F)F)cn3)nn2)cc1C(F)(F)F [Example 439, 5-(Difluoromethyl)-2-[[1-[4-fluoro-3-(trifluoromethyl)phenyl]triazol-4-yl]methoxy]pyrimidine] — 1.6-fold higher, 0.013 µM
- CCOc1cnc(OCc2cn(-c3ccc(F)c(C(F)(F)F)c3)nn2)nc1 [Example 443, 5-Ethoxy-2-[[1-[4-fluoro-3-(trifluoromethyl)phenyl]triazol-4-yl]methoxy]pyrimidine] — 2-fold lower, 0.004 µM
- Fc1cnc(OCc2cn(-c3cccc(Cl)c3F)nn2)nc1 [Example 614, 2-[[1-(3-Chloro-2-fluoro-phenyl)triazol-4-yl]methoxy]-5-fluoro-pyrimidine] — 500-fold higher, 4.03 µM
- COCc1ccnc(OCc2cn(-c3ccc(F)c(C(C)(F)F)c3)nn2)n1 [Example 570, 2-[[1-[3-(1,1-Difluoroethyl)-4-fluoro-phenyl]triazol-4-yl]methoxy]-4-(methoxymethyl)pyrimidine] — within 1.5-fold, 0.011 µM
- Fc1ccc(-n2cc(COc3ncc(N4CC(C(F)F)C4)cn3)nn2)cc1C(F)F [Example 421, 2-((1-(3-(Difluoromethyl)-4-fluorophenyl)-1H-1,2,3-triazol-4-yl)methoxy)-5-(3-(difluoromethyl)azetidin-1-yl)pyrimidine] — 28-fold higher, 0.227 µM
- COC(C)(C)c1cnc(OCc2cn(-c3ccc(F)c(C(C)(F)F)c3)nn2)nc1 [Example 567, 2-[[1-[3-(1,1-Difluoroethyl)-4-fluoro-phenyl]triazol-4-yl]methoxy]-5-(1-methoxy-1-methyl-ethyl)pyrimidine] — 580-fold higher, 4.63 µM
- Cc1cnc(OCc2cn(-c3cccc(F)c3C)nn2)nc1 [Example 464, 2-[[1-(3-Fluoro-2-methyl-phenyl)triazol-4-yl]methoxy]-5-methyl-pyrimidine] — 64-fold higher, 0.515 µM

Same assay, conditions: standard assay; human GluN1/GluN2B, calcium flux (FLIPR), glutamate ~EC80

Point of comparison: `Cc1cnc(NCc2cn(-c3ccc(F)c(C(F)F)c3)nn2)nc1` [Example 211, N-[[1-[3-(Difluoromethyl)-4-fluoro-phenyl]triazol-4-yl]methyl]-5-methyl-pyrimidin-2-amine], IC50 0.049 µM. Against it:
- CC(F)(F)c1cc(-n2cc(COc3ncc(N4CCOCC4)cn3)nn2)ccc1F [Example 187, 4-(2-((1-(3-(1,1-Difluoroethyl)-4-fluorophenyl)-1H-1,2,3-triazol-4-yl)methoxy)pyrimidin-5-yl)morpholine] — 1.8-fold higher, 0.088 µM
- Fc1cnc(OCc2cn(-c3ccc(Cl)c(OC(F)F)c3)nn2)nc1NCC(F)F [Example 388, 2-[[1-[4-Chloro-3-(difluoromethoxy)phenyl]triazol-4-yl]methoxy]-N-(2,2-difluoroethyl)-5-fluoro-pyrimidin-4-amine] — 17-fold higher, 0.842 µM
- Cc1cnc(OCc2cn(-c3ccc(Cl)c(C(F)F)c3)nn2)nc1C [Example 86, 2-[[1-[4-Chloro-3-(difluoromethyl)phenyl]triazol-4-yl]methoxy]-4,5-dimethyl-pyrimidine] — 12-fold lower, 0.004 µM
- Fc1ccc(-n2cc(CNc3ccccn3)nn2)cc1OC(F)F [Example 221, N-((1-(3-(Difluoromethoxy)-4-fluorophenyl)-1H-1,2,3-triazol-4-yl)methyl)pyridin-2-amine] — 15-fold higher, 0.724 µM
- CC(C)(O)c1cnc(NCc2cn(-c3ccc(F)c(C(F)F)c3)nn2)nc1 [Example 214, 2-[2-[[1-[3-(Difluoromethyl)-4-fluoro-phenyl]triazol-4-yl]methylamino]pyrimidin-5-yl]propan-2-ol] — 13-fold higher, 0.654 µM
- Cc1cnc(OCc2cn(-c3cccc(C(C)(F)F)c3)nn2)nc1N [Example 314, 2-[[1-[3-(1,1-Difluoroethyl)phenyl]triazol-4-yl]methoxy]-5-methyl-pyrimidin-4-amine] — 8.2-fold lower, 0.006 µM
- FC(F)c1cnc(NCc2cn(-c3ccc(Cl)c(C(F)F)c3)nn2)nc1 [Example 204, N-[[1-[4-Chloro-3-(difluoromethyl)phenyl]triazol-4-yl]methyl]-5-(difluoromethyl)pyrimidin-2-amine] — 4.9-fold higher, 0.24 µM
- CC(Oc1ncccn1)c1cn(-c2ccc(Cl)c(OC(F)F)c2)nn1 (racemic) [Example 53, (R/S)-2-[1-[1-[4-Chloro-3-(difluoromethoxy)phenyl]triazol-4-yl]ethoxy]pyrimidine] — 1.9-fold lower, 0.026 µM
- FC(F)Oc1cc(-n2cc(COc3cnccn3)nn2)ccc1Cl [Example 23, 2-[[1-[4-Chloro-3-(difluoromethoxy)phenyl]triazol-4-yl]methoxy]pyrazine] — 9.3-fold higher, 0.456 µM
- FC(F)c1cccc(-n2cc(COc3nccc(C(F)F)n3)nn2)c1 [Example 274, 4-(Difluoromethyl)-2-[[1-[3-(difluoromethyl)phenyl]triazol-4-yl]methoxy]pyrimidine] — 17-fold higher, 0.813 µM
- Fc1ccc(-n2cc(CNc3ncccn3)nn2)cc1OC(F)F [Example 36, N-[[1-[3-(Difluoromethoxy)-4-fluoro-phenyl]triazol-4-yl]methyl]pyrimidin-2-amine] — 7.2-fold higher, 0.351 µM
- CC(C)c1cnc(OCc2cn(-c3cccc(C(F)(F)F)c3)nn2)nc1 [Example 288, 5-Isopropyl-2-[[1-[3-(trifluoromethyl)phenyl]triazol-4-yl]methoxy]pyrimidine] — within 1.5-fold, 0.04 µM
- Cn1cc(NCc2cn(-c3ccc(F)c(C(F)F)c3)nn2)cn1 [Example 99, N-[[1-[3-(Difluoromethyl)-4-fluoro-phenyl]triazol-4-yl]methyl]-1-methyl-pyrazol-4-amine] — 100-fold higher, 5.05 µM
- Cc1cc(C)cc(-n2cc(COc3ncc(F)cn3)nn2)c1 [Example 361, 2-[[1-(3,5-Dimethylphenyl)triazol-4-yl]methoxy]-5-fluoro-pyrimidine] — 12-fold higher, 0.587 µM
- COc1cnc(OCc2cn(-c3cccc(C(C)C)c3)nn2)nc1 [Example 264, 2-[[1-(3-Isopropylphenyl)triazol-4-yl]methoxy]-5-methoxy-pyrimidine] — 8.2-fold lower, 0.006 µM
- CC(Oc1ncccn1)c1cn(-c2ccc(Cl)c(OC(F)F)c2)nn1 (single isomer, unassigned) [Example 54, (R*)-2-[1-[1-[4-Chloro-3-(difluoromethoxy)phenyl]triazol-4-yl]ethoxy]pyrimidine] — 95-fold higher, 4.64 µM
